Test results taken from patent publication US8853215B2, “Derivatives of N-acyl-N′-phenylpiperazine useful (inter alia) for the prophylaxis or treatment of diabetes” (Takeda Pharmaceutical Company Limited, priority 2009, dated 2014).

How the values were obtained:
[1] = target: human RBP4 (Homo sapiens (Human), UniProt P02753); assay: Binding assay by Retinol-RBP4-TTR ELISA; details: for inhibition at 10 µM: at 10 μM compound, read-out: human RBP4 binding inhibitory activity(% at 10 μM); for IC50: retinol 50 nM, His-tagged human RBP4, biotinylated human TTR, read-out: human RBP4 binding inhibitory activity (IC50 nM)
Protocol: The action of the compound of the present invention to inhibit binding of RBP4 and retinol and TTR was evaluated using the Retinol-RBP4-TTR ELISA system shown below.
1F: Binding Assay by Retinol-RBP4-TTR ELISA
This ELISA system detects a complex of RBP4 and TTR based on a retinol-dependent binding of RBP4 to TTR.
His-tagged human RBP4 used was prepared in the above-mentioned 1C.
Biotinylate human TTR used was prepared in the above-mentioned 1E.
Streptavidin (20 μl) (10 μg/ml Streptavidin type II (Wako Pure Chemical Industries, Ltd.), 10 mM Tris-HCl (pH 7.5), 10 mM NaCl) was added to a 384 well black plate (Nunc MaxiSorp, Thermo Fisher Scientific Inc.), and the plate was subjected to centrifugation (1000 rpm, 1 min) and coated overnight at 4° C. The plate was washed twice with PBST (PBS, 0.05% Tween 20, 100 μl/well) and blocked with 25% Block Ace (Snow Brand Milk Products Co., Ltd., PBS, 100 μl/well). The plate was subjected to centrifugation (1000 rpm, 1 min) and incubated at room temperature for 4 hr or overnight at 4° C. The plate was washed twice with PBST (PBS, 0.05% Tween 20, 100 μl/well), and biotinylate human TTR (stock solution concentration 1.0 mg/ml) diluted 750-fold with PBST was added at 20 μl/well. The plate was subjected to centrifugation (1000 rpm, 1 min) and stood still at room temperature for 1.5 hr or overnight at 4° C. The plate was washed 3 times with PBST (100 μl/well), and His-tagged human RBP4 (stock solution concentration 0.96 mg/ml) diluted 4000-fold with a reaction buffer (50 mM Tris-HCl, 150 mM NaCl, 0.005% Tween 20, 1 mM DTT, 0.1% BSA) was added at 10 μl/well. The dilution series (8 doses from 10 mM, 200-fold concentration) of the compound was prepared with DMSO, and 1 μl of each was added to a reaction buffer (200 μl) containing retinol (50 nM) (Sigma-Aldrich Co.). A reaction buffer (200 μl) containing retinol and added with DMSO was used as a positive control, and reaction buffer (200 μl) free of retinol and added with DMSO was used as a negative control. Mixed solutions of retinol and the compound were added to the plate at 15 μl/well. The plate was stirred in a platemixer subjected to centrifugation (1000 rpm, 1 min) and reacted at room temperature for 2 hr. A 35% Block Ace solution diluted with the reaction buffer was added at 10 μl/well, centrifuged (1000 rpm, 1 min) and reacted at room temperature for 30 min. The plate was washed 3 times with PBST (100 μl/well) and SuperSignal ELISA Femto Maximum Sensitivity Substrate reagent (PIERCE, Thermo Fisher Scientific Inc.) was added at 30 μl/well, and the luminescence was measured by a platereader (Wallac).
The binding inhibitory activity of the compound was determined by 100×(positive control value-test compound value)/(positive control value-negative control value). The binding activity (IC50) was calculated from the binding inhibitory rate at each compound concentration using a graph drawing software, GraphPad Prism (GraphPad Software Inc.).

[2] = target: RBP4 (Mus musculus (Mouse), UniProt Q00724); assay: Single administration test in mice, plasma RBP4 by ELISA; type: in vivo; details: male C57BL/6J or ICR mice, 50 mg/kg oral single dose, mean±SD; for RBP4 (% of initial/Control) 0 hr: 0 hr (just before the administration); for RBP4 (% of initial/Control) 4 hr: 4 hr after administration; for RBP4 (% of initial/Control) 7 hr: 7 hr after administration; for RBP4 (% of initial/Control) 24 hr: 24 hr after administration
Protocol: The action of the compounds of the present invention to reduce plasma RBP4 level was evaluated using the animal model shown below.
Male C57BL/6J and ICR mice were purchased from Charles River (Japan) and maintained on a normal diet (CE2, CLAE Japan, Inc.) and tap water. Animals were housed in a temperature-controlled room adjusted to a 12-hour light/12-hour dark cycle beginning at 7:00 and 19:00, respectively. All procedures were conducted according to the experimental animal care use committee of Takeda Pharmaceutical Company.
Male 6-12-week-old C57BL/6J or ICR mice were housed individually and fed CE2 for 4-6 days. After acclimatization, mice were divided into groups based on their body weight. Compounds were suspended in 0.5% (w/v) methylcellulose in water and given orally to mice at a dose of 50 mg/10 mL/kg of body weight (three to five mice per group). Blood samples were obtained from orbital vein with sodium heparin as an anticoagulant at time 0 hr (just before the administration), 4 hr, 7 hr, and 24 hr after the administration, followed by plasma separation by centrifugation. Plasma RBP4 levels were measured by enzyme-linked immunosorbent assay described in the following section.
Plasma samples were analyzed in duplicate for RBP4 by an enzyme-linked immunosorbent assay. Mouse recombinant RBP4 (Takeda Pharmaceutical Company) was used as standards, and the assay range was 0.313-20 ng/ml. Samples were diluted 10,000-fold with phosphate-buffered saline (PBS) (Sigma) containing 10% (w/v) BlockAce (Dainippon Sumitomo Pharma Co., Ltd). Rabbit anti-RBP4 polyclonal antibody (100 μL/well of 50 μg/mL, Hokudo Co, Ltd) was incubated in a 96-well plate (Nalge Nunc International K.K.) for overnight at 4° C. Subsequently, the plates were washed with PBS-T (Wako Pure Chemical Industries, Ltd.) and blocked with PBS containing 25% BlockAce for 1 hr at room temperature. After another washing with PBS-T, samples and standards were applied to the well, and the plates were incubated for 2 hr at room temperature. After a washing the wells, peroxidase-labeled (Dojindo Laboratories) anti-RBP4 (100 μL/well) was added to the wells, and then the plates were incubated for 1 hr at room temperature. After a final washing with PBS-T, substrate solution 3,3,5,5-tetramethylbenzidine (Sigma) was added to the wells, and the plates were placed in the dark for 5-20 min at room temperature. The reaction was stopped with 0.5 M sulphuric acid and the optical density was measured with a spectrophotometer at 450 nm. The changes in plasma RBP4 levels were expressed as % of initial/Control. All data are presented as mean±SD.

| inhibition at 10 µM [1] [%] | IC50 [1] [nM] | RBP4 (% of initial/Control) 0 hr [2] | RBP4 (% of initial/Control) 4 hr [2] | RBP4 (% of initial/Control) 7 hr [2] | RBP4 (% of initial/Control) 24 hr [2] | SMILES |
| --- | --- | --- | --- | --- | --- | --- |
| 100 | – | 100.0 ± 26.6 % of initial/Control | 44.8 ± 2.9 % of initial/Control | 40.3 ± 1.6 % of initial/Control | 94.9 ± 22.6 % of initial/Control | CC(C)(C)c1cc(Br)ccc1N1CCN(C(=O)C(=O)O)CC1 [Example 67, [4-(4-Bromo-2-tert-butylphenyl)piperazin-1-yl](oxo)acetic acid] |
| 100 | – | 100.0 ± 18.9 % of initial/Control | 66.3 ± 5.7 % of initial/Control | 75.0 ± 10.8 % of initial/Control | 125.7 ± 20.9 % of initial/Control | Cc1nc(C(=O)N2CCN(c3ccccc3C(C)(C)C)CC2)cn1CC(=O)O [Example 205, (4-{[4-(2-tert-Butylphenyl)piperazin-1-yl]carbonyl}-2-methyl-1H-imidazol-1-yl)acetic acid] |
| 100 | – | 100.0 ± 16.6 % of initial/Control | 43.4 ± 4.7 % of initial/Control | 36.9 ± 1.0 % of initial/Control | 66.4 ± 28.1 % of initial/Control | CC(C)(C)c1ccccc1N1CCN(C(=O)c2cc(OCC(=O)O)no2)CC1 [Example 216, [(5-{[4-(2-tert-Butylphenyl)piperazin-1-yl]carbonyl}isoxazol-3-yl)oxy]acetic acid] |
| 100 | – | 100.0 ± 21.7 % of initial/Control | 45.7 ± 0.8 % of initial/Control | 58.9 ± 5.1 % of initial/Control | 89.2 ± 11.6 % of initial/Control | CC(C)(C)c1ccccc1N1CCN(C(=O)Cn2cnnn2)CC1 [Example 94, 1-(2-tert-Butylphenyl)-4-(1H-tetrazol-1-ylacetyl)piperazine] |
| 99 | 30 | 100.0 ± 13.8 % of initial/Control | 47.7 ± 2.7 % of initial/Control | 44.4 ± 0.7 % of initial/Control | 50.0 ± 2.4 % of initial/Control | CC(C)(C)c1cc(Br)ccc1N1CCN(C(=O)CC(=O)O)CC1 [Example 69, 3-[4-(4-Bromo-2-tert-butylphenyl)piperazin-1-yl]-3-oxopropanoic acid] |
| 99 | – | 100.0 ± 10.5 % of initial/Control | 55.3 ± 4.0 % of initial/Control | 54.9 ± 8.8 % of initial/Control | 97.6 ± 24.5 % of initial/Control | CC(C)(C)c1cc(Cl)ccc1N1CCN(C(=O)c2ccc(OCC(=O)O)cn2)CC1 [Example 210, [(6-{[4-(2-tert-Butyl-4-chlorophenyl)piperazin-1-yl]carbonyl}pyridin-3-yl)oxy]acetic acid] |
| 100 | – | 100.0 ± 27.4 % of initial/Control | 43.1 ± 1.7 % of initial/Control | 37.6 ± 0.7 % of initial/Control | 52.0 ± 2.8 % of initial/Control | CC(C)(C)c1cc(Cl)ccc1N1CCN(C(=O)CC(=O)O)CC1 [Example 207, 3-[4-(2-tert-Butyl-4-chlorophenyl)piperazin-1-yl]-3-oxopropanoic acid] |

Further lines, the compound ahead of its results:

| SMILES | inhibition at 10 µM [1] [%] | IC50 [1] [nM] | RBP4 (% of initial/Control) 0 hr [2] | RBP4 (% of initial/Control) 4 hr [2] | RBP4 (% of initial/Control) 7 hr [2] | RBP4 (% of initial/Control) 24 hr [2] |
| --- | --- | --- | --- | --- | --- | --- |
| CC(C)(C)c1ccccc1N1CCN(C(=O)C(=O)NS(=O)(=O)NCC2CC2)CC1 [Example 39, 2-[4-(2-tert-Butylphenyl)piperazin-1-yl]-N-[(cyclopropylmethyl)sulfamoyl]-2-oxoacetamide] | 97 | 430 | 100.0 ± 5.8 % of initial/Control | 37.1 ± 1.9 % of initial/Control | 45.1 ± 6.2 % of initial/Control | 86.6 ± 12.4 % of initial/Control |
| CC(C)(C)c1ccccc1N1CCN(C(=O)C(=O)Nc2ccc(OCC(=O)O)cc2)CC1 [Example 201, [4-({[4-(2-tert-Butylphenyl)piperazin-1-yl](oxo)acetyl}amino)phenoxy]acetic acid] | 99 | – | 100.0 ± 9.8 % of initial/Control | 65.0 ± 0.7 % of initial/Control | 60.3 ± 1.0 % of initial/Control | 100.2 ± 13.6 % of initial/Control |
| CC(C)(C)c1ccccc1N1CCN(C(=O)C(=O)N2CCC(C(=O)O)CC2)CC1 [Example 89, 1-{[4-(2-tert-Butylphenyl)piperazin-1-yl](oxo)acetyl}piperidine-4-carboxylic acid] | 99 | – | 100.0 ± 34.2 % of initial/Control | 42.5 ± 6.0 % of initial/Control | 46.6 ± 4.3 % of initial/Control | 105.9 ± 27.6 % of initial/Control |
| CC(C)(C)c1ccccc1N1CCN(C(=O)c2ccc(OCC(=O)O)cc2)CC1 [Example 24, (4-{[4-(2-tert-Butylphenyl)piperazin-1-yl]carbonyl}phenoxy)acetic acid] | 100 | – | 100.0 ± 36.4 % of initial/Control | 30.9 ± 2.7 % of initial/Control | 32.2 ± 2.2 % of initial/Control | 73.1 ± 25.6 % of initial/Control |
| CC(C)(C)c1ccccc1N1CCN(C(=O)C(=O)NCCc2ccc(C(=O)O)cc2)CC1 [Example 203, 4-[2-({[4-(2-tert-Butylphenyl)piperazin-1-yl](oxo)acetyl}amino)ethyl]benzoic acid] | 100 | – | 100 ± 2.82 % of initial/Control | 43.4 ± 1.8 % of initial/Control | 37.2 ± 1.0 % of initial/Control | 107.9 ± 15.6 % of initial/Control |
